In the assay the target is T1, Human recombinant CXCR2 receptor (Homo sapiens, UniProt P25025).
T1 construct: Biosignal Packard Inc. (Kb, GTPγS assay); host or cells: CHO-K1
T1 sequence (P25025 1-360): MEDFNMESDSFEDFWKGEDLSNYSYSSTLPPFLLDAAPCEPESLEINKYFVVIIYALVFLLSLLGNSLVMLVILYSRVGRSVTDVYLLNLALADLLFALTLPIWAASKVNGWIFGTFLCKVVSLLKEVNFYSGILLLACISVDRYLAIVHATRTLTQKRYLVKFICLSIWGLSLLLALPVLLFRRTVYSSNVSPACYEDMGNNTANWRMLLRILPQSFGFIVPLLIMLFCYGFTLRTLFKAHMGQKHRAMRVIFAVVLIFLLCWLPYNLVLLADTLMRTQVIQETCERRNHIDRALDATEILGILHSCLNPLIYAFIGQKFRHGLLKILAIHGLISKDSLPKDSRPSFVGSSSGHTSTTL
The assay can be described thus: Receptor Binding Assay ([125I] IL-8, Ki) or [35S]-GTPγS Binding Assay (Kb) for human CXCR2 receptor. The settings on record: CHO-K1 membranes expressing human CXCR2; Ki from Receptor Binding Assay, Kb from [35S]-GTPγS Binding Assay; table does not say which applies per value; compounds are trifluoroacetic acid salts. As for the experimental part:
[^125I] IL-8 (human recombinant) was obtained from Amersham Pharmacia Biotech., with specific activity 2000 Ci/mmol. All other chemicals were of analytical grade. Human recombinant CXCR2 receptor expressed in Chinese hamster ovary cells (CHO-K1) was purchased from Euroscreen. The Chinese hamster ovary membranes were prepared according to protocol supplied by Euroscreen. Membrane protein concentration was determined using a Bio-Rad protein assay. Assays were performed in a 96-well micro plate format according the method described in White, et al., J Biol Chem., 1998, 273, 10095). Each reaction mixture contained 0.05 mg/ml CXCR2 membrane protein in 20 mM Bis-Tris-propane, pH 8.0, containing 1.2 mM MgSO4, 0.1 mM EDTA, 25 mM NaCl and 0.03% CHAPS. In addition, compound of interest was added which had been pre-dissolved in dimethylsulphoxide (DMSO) so as to reach a final concentration of between 10 μM and 0.0005 μM (final concentration of DMSO 2% (v/v)). Binding was initiated by addition of 0.02 nM ^125I-IL-8. After 2 hours at room temperature the plate was harvested using a Brandell™ 96-well harvester onto glass fibre filter plate (GF/c) blocked with 1% polyethyleneimine+0.5% BSA and washed 3 times with 25 mM NaCl, 10 mM TrisHCl, 1 mM MgSO4, 0.5 mM EDTA, 0.03% CHAPS, pH 7.4. The filter was dried at 50° C. overnight. Backseal was then applied to the plate and 50 μl of liquid scintillation fluid added. The counts were then measured on the Packard Topcount™ scintillation counter.
[^35S]-GTPγS Binding Assay for Human CXCR2 Receptor Using SPA Technology
[^35S]-GTPγS (with specific activity 1082 Ci/mmol) and wheat germ agglutinin poly vinyl toluene scintillation proximity beads were purchased from Amersham Pharmacia Biotech. The Chinese hamster ovary cell (CHO-K1) membranes expressing human CXCR2 receptors were purchased from Biosignal Packard Inc. All other chemicals were of analytical grade. White non-binding surface 96 well Optiplate™ microplates were obtained from Packard. Recombinant human IL-8 was synthesised, cloned and expressed in Escherichia coli as described previously (Lindley I, et al., Proc. Natl. Acad. Sci., 1988, 85(23):9199).
The assay was performed in duplicate in 96 well Optiplate™ microplate in a final volume of 250 μl per well. Compounds were diluted in DMSO (0.5% final concentration) and incubated in 20 mM HEPES buffer pH 7.4 containing 10 mM MgCl2, 100 mM NaCl, 1 mM EDTA plus 100 nM IL-8, 50 VM GDP and 500 pM [^35S]GTPγS per well. SPA beads (1 mg/well final concentration) were pre-mixed with the membranes ([…] final concentration) in assay buffer: 20 mM HEPES buffer pH 7.4 containing 10 mM MgCl2, 100 mM NaCl, 1 mM EDTA. The bead membrane mixture was then added to each well, plates were sealed and incubated at room temperature for 60 minutes. After which time the plate was centrifuged and immediately read on Packard TopCount™ scintillation counter, program [^35S dpm] for 1 min/well. Data was expressed as the % response to 100 nM IL-8 minus basal.
Ki data and Kb data are determined in the aforementioned Receptor Binding and [^35S]-GTPγS Binding Assays respectively.
Background: GTPγS is a poorly hydrolysed GTP analogue; its binding reports G protein activation.

In general, Ki refers to a measure of affinity in units of concentration, obtained from inhibition or displacement.

Consider `O=C(O)c1cccc2nc(Nc3ccccc3-c3ccccc3)[nH]c12` [Example 5], for which the Ki was 1200 nM.
For the compound `O=C(O)c1cc(-c2ccoc2)cc2nc(Nc3cccc(Cl)c3Cl)[nH]c12` [Example 10], the Ki worked out at 1500 nM.
With `O=C(O)c1cc(F)cc2nc(Nc3cccc(Cl)c3Cl)[nH]c12` [Example 1, 2-(2,3-Dichloro-phenylamino)-6-fluoro-3H-benzoimidazole-4-carboxylic acid], the Ki stood at 200 nM.
The figure for `Cc1c(F)cccc1Nc1nc2cccc(C(=O)O)c2[nH]1` [Example 3] is 800 nM; for `Cn1ccc(-c2cc(C(=O)O)c3[nH]c(Nc4cccc(Cl)c4Cl)nc3c2)n1` [Example 12] it is 1800 nM.
